Reference: patent EP2931723B1, “NEW BICYCLIC COMPOUNDS AND THEIR USE AS ANTIBACTERIAL AGENTS AND -LACTAMASE INHIBITORS” (Fedora Pharmaceuticals Inc., priority 2012, dated 2014)

Columns and labels:
Assay in all cases: MIC, antibacterial and synergistic activity
Assay type in all cases: cell-based
[1] = system: E. coli JMI 4080; conditions: for MIC Aztreonam + inhibitor / MIC Ceftazidime + inhibitor / MIC Meropenem + inhibitor: E. coli JMI 4080 (Tem-10); for MIC Aztreonam + inhibitor: Aztreonam + inhibitor at 4 µg/mL; for MIC Ceftazidime + inhibitor: Ceftazidime + inhibitor at 4 µg/mL; for MIC Meropenem + inhibitor: Meropenem + inhibitor at 4 µg/mL; for MIC: Escherichia coli, JMI4080, E. coli JMI 4080 (Tem-10), substance alone
[2] = system: E. coli JMI 10767; conditions: E. coli JMI 10767 (Wt); for MIC Aztreonam + inhibitor: Aztreonam + inhibitor at 4 µg/mL; for MIC Ceftazidime + inhibitor: Ceftazidime + inhibitor at 4 µg/mL
Description: (§1) In the Tables 10 - 12, compounds herein disclosed were tested in combination with various antibiotics against metallo β-lactamase producing bacteria. Table 3: Synergy of the inhibitor Ex. 1 (4 µg/mL) in combination with antibiotics

[3] = system: E. coli JMI 10770; conditions: E. coli JMI 10770 (CTX-M15 (Hyper ESBL)); for MIC Aztreonam + inhibitor: Aztreonam + inhibitor at 4 µg/mL; for MIC Ceftazidime + inhibitor: Ceftazidime + inhibitor at 4 µg/mL; for MIC Meropenem + inhibitor: Meropenem + inhibitor at 4 µg/mL
Description: as §1

[4] = system: E. coli JMI 2665; conditions: for MIC Aztreonam + inhibitor: Aztreonam + inhibitor at 4 µg/mL; for MIC Ceftazidime + inhibitor: Ceftazidime + inhibitor at 4 µg/mL; for MIC: Escherichia coli, JMI2665
Description: as §1

[5] = system: E. coli JMI 2671; conditions: for MIC Aztreonam + inhibitor / MIC Ceftazidime + inhibitor / MIC Meropenem + inhibitor: E. coli JMI 2671 (VIM-19 (Cpase)); for MIC Aztreonam + inhibitor: Aztreonam + inhibitor at 4 µg/mL; for MIC Ceftazidime + inhibitor: Ceftazidime + inhibitor at 4 µg/mL; for MIC Meropenem + inhibitor: Meropenem + inhibitor at 4 µg/mL; for MIC: Escherichia coli, JMI2671, E. coli JMI 2671 (VIM-19 (Cpase)), substance alone
Procedure, shortened: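 Each antibiotic's minimum inhibitory concentration is reported when tested alongside inhibitor at 4 µg/mL. Strains carry metallo β-lactamases.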

[6] = system: K. pneumo JMI 2674; conditions: K. pneumo JMI 2674 (CTX-M15 (ESBL)); for MIC Aztreonam + inhibitor: Aztreonam + inhibitor at 4 µg/mL; for MIC Ceftazidime + inhibitor: Ceftazidime + inhibitor at 4 µg/mL; for MIC Meropenem + inhibitor: Meropenem + inhibitor at 4 µg/mL
Procedure, shortened: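 Antibacterial activity was assessed as minimum inhibitory concentrations against a β-lactamase-producing bacterial strain. Each test inhibitor was combined with an antibiotic, with the inhibitor held at a fixed 4 µg/mL, to determine whether it acted synergistically and restored the antibiotic's effect against the resistant organism.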

[7] = system: K. pneumo JMI 4088; conditions: K. pneumo JMI 4088 (KPC-3 (Cpase)); for MIC Aztreonam + inhibitor: Aztreonam + inhibitor at 4 µg/mL; for MIC Ceftazidime + inhibitor: Ceftazidime + inhibitor at 4 µg/mL; for MIC Meropenem + inhibitor: Meropenem + inhibitor at 4 µg/mL
Procedure, shortened: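 The compound was tested for synergy by combining it with antibiotics and measuring minimum inhibitory concentrations against β-lactamase producing bacteria. The inhibitor was present at a fixed concentration of 4 µg/mL together with the partner antibiotic, and MIC values were recorded.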

[8] = system: K.pneumo JMI 4109; conditions: K.pneumo JMI 4109 (SHV-1, SHV-12); for MIC Aztreonam + inhibitor: Aztreonam + inhibitor at 4 µg/mL; for MIC Ceftazidime + inhibitor: Ceftazidime + inhibitor at 4 µg/mL; for MIC Meropenem + inhibitor: Meropenem + inhibitor at 4 µg/mL
Procedure, shortened: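 Antibacterial synergy was assessed by pairing each inhibitor compound, at a constant concentration of 4 µg/mL, with β-lactam antibiotics. The combinations were run against bacterial strains that produce β-lactamases, and the readout was the minimum inhibitory concentration of the antibiotic in the presence of the inhibitor.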

[9] = system: K. pneumo JMI 2673; conditions: K. pneumo JMI 2673 (CTX-M14 (ESBL)); substance alone
[10] = E. coli JMI 2665 (CMY-2 (Plasmid Cpase))

Compound	MIC Aztreonam + inhibitor [1]	MIC Ceftazidime + inhibitor [1]	MIC Meropenem + inhibitor [1]	MIC [1]	MIC Aztreonam + inhibitor [2]	MIC Ceftazidime + inhibitor [2]	MIC Aztreonam + inhibitor [3]	MIC Ceftazidime + inhibitor [3]	MIC Meropenem + inhibitor [3]	MIC Aztreonam + inhibitor [4, 10]	MIC Ceftazidime + inhibitor [4, 10]	MIC [4]	MIC Aztreonam + inhibitor [5]	MIC Ceftazidime + inhibitor [5]	MIC Meropenem + inhibitor [5]	MIC [5]	MIC Aztreonam + inhibitor [6]	MIC Ceftazidime + inhibitor [6]	MIC Meropenem + inhibitor [6]	MIC Aztreonam + inhibitor [7]	also measured
O=C(NNC(=O)[C@H]1CC[C@H]2CN1C(=O)N2OS(=O)(=O)O)C1CC1 (stereo in doubt) [Ex. 7, (2R,5S)-N'-(cyclopropylcarbonyl)-7-oxo-6-(sulfooxy)-1,6-diazabicyclo[3.2.1]octane-2-carbohydrazide]	≤0.062 µg/mL	≤0.25 µg/mL	≤0.0312 µg/mL	4 µg/mL	≤0.062 µg/mL	≤0.25 µg/mL	≤0.062 µg/mL	≤0.25 µg/mL	≤0.0312 µg/mL	≤0.062 µg/mL	≤0.25 µg/mL	2 µg/mL	≤0.062 µg/mL	0.5 µg/mL	0.5 µg/mL	8 µg/mL	≤0.062 µg/mL	≤0.25 µg/mL	0.125 µg/mL	0.125 µg/mL	MIC Ceftazidime + inhibitor [7]: 1 µg/mL; MIC Meropenem + inhibitor [7]: 1 µg/mL; MIC Aztreonam + inhibitor [8]: 0.125 µg/mL; MIC Ceftazidime + inhibitor [8]: ≤0.25 µg/mL; MIC Meropenem + inhibitor [8]: ≤0.0312 µg/mL; MIC [9]: > 16 µg/mL
O=C(NNC(=O)[C@H]1CC[C@H]2CN1C(=O)N2OS(=O)(=O)O)C1CNC1 (stereo in doubt) [Ex. 9, (2R,5S)-N'-(azetidin-3-ylcarbonyl)-7-oxo-6-(sulfooxy)-1,6-diazabicyclo[3.2.1]octane-2-carbohydrazide]	≤0.06 µg/mL	0.25 µg/mL	≤0.03 µg/mL	16 µg/mL	≤0.06 µg/mL	≤0.25 µg/mL	≤0.06 µg/mL	≤0.25 µg/mL	≤0.03 µg/mL	≤0.06 µg/mL	≤0.25 µg/mL	8 µg/mL	≤0.06 µg/mL	1 µg/mL	0.125 µg/mL	> 16 µg/mL	0.125 µg/mL	≤0.25 µg/mL	0.06 µg/mL	0.5 µg/mL	MIC Meropenem + inhibitor ([4]; E. coli JMI 2665 (CMY-2 (Plasmid Cpase)), Meropenem + inhibitor at 4 µg/mL): ≤0.03 µg/mL; MIC Ceftazidime + inhibitor [7]: ≤0.25 µg/mL; MIC Meropenem + inhibitor [7]: 0.06 µg/mL; MIC Aztreonam + inhibitor [8]: ≤0.06 µg/mL; MIC Ceftazidime + inhibitor [8]: ≤0.25 µg/mL; MIC Meropenem + inhibitor [8]: ≤0.03 µg/mL; MIC [9]: > 16 µg/mL
